# Test results published in patent publication US8648113B2, “Mixture and compounds from mycelia of Antrodia camphorata and use thereof” (Simpson Biotech Co., Ltd., priority 2004, dated 2014).
# Several values for one entry are separate records, joined by “and”; a condition that tells them apart may be missing. Equal entries are not always repeated. Where two headings read alike, the source gives them in different places.
# Key:
# [1] = system: Wistar derived male rats, D-galactosamine induced hepatic injury; test: Hepatic Injury, D-Galactosamine in rats; type: in vivo, rat; conditions: 300 mg/kg × 3 PO (Guanine, reference)
# Description: Groups of 5 Wistar derived male rats weighing 200±20 g were used. Each animal was treated with a single injection of D-galactosamine (500 mg/kg, IP) Test substance was administered orally at 0.5 hour before and 4 hours as well as 8 hours after D-galactosamine administration and animals were sacrificed 24 hours later. […] Reduction in ALT or AST activity by 30 percent or more (30%), relative to the vehicle treated control animal indicates significant protection.
# Test substance and vehicle were administered orally at 0.5 hour before and 4, 8 hours after a single dose of galactosamine (500 mg/kg, IP). The rats were sacrificed 24 hours after galactosamine injection and the ALT and AST values were determined A reduction of 30% in the ALT and AST relative to the vehicle group is considered significant. • 3. Winter et al., Inflammation, Carrageenan, Proc. Soc.
# [2] = system: LLC (Lewis lung carcinoma) cell line
# [3] = system: LLC (Lewis lung carcinoma) cell line; test: Cytotoxic assay, in vitro LLC tumor cell assay (SRB method); conditions: for 50% Growth Inhibition (ED50): SRB method
# [4] = system: KATO III: human stomach carcinoma; test: Tumor assay of ACM, MTT method, KATO III; type: cell-based; conditions: 3 days
# Text: (§1) Tumor Assay of ACM (Antrodia camphorata Mycelia Powder) A. Cell Line • Adherent Cell • MCF-7: human breast carcinoma • HT-29: human colon adenocarcinoma • KATO III: human stomach carcinoma • SW480: human colon adenocarcinoma • SW620: human colon adenocarcinoma • HepG2: human liver carcinoma • Suspension Cell • EL4: mice lymphoma B. Samples • Compound 1, Compound 3, ACM EtOH Extract, ACM H2O Extract C. Assay Method • Calculate ED50 (50% inhibition of effective dose) • Adherent cell: MTT (methyl thiazolyl tetrazolium) method for MCF-7, HT-29, KATO III, SW480, HepG2, cells are determined at 3 days. SW620 at 4 days • Suspension cell: Cell count method; EL4 cells count at 5 days D. Result Calculation: y=m Ln(x)+b
# (§2) Use value of X (10, 30, 50 ppm) and Y to get correlation curve y=−0.2643 Ln(x)+1.5321 ED50=exp[0.97/2−1.5321/(−0.2643)] Sample Preparation and Sample Description A. ACM (Antrodia Camphorata Mycelia Powder) H2O Extract 1. Add 1 g of ACM into 40 ml of RO H2O in a 250 ml beaker, put the beaker in ultrasonic water bath for 20 min at room temperature 2. Stir at 45° C. water bath for 45 min 3. Place the beaker in ultrasonic water bath for another 20 min 4. Centrifuge the sample at 3000 rpm for 15 min 5. Collect supernatant and perform serial dilutions with media B. Determination of Sample Concentration 1. […] Read at OD545 on Elisa reader Cell Count Method (EL4 Cell Line) 1. […]
# [5] = system: HT-29: human colon adenocarcinoma; test: Tumor assay of ACM, MTT method, HT-29; type: cell-based; conditions: 3 days
# Text: as §1, §2
# [6] = system: HepG2: human liver carcinoma; test: Tumor assay of ACM, MTT method, HepG2; type: cell-based; conditions: 3 days
# Text: as §1, §2
# [7] = system: SW620: human colon adenocarcinoma; test: Tumor assay of ACM, MTT method, SW620; type: cell-based; conditions: 4 days
# Text: as §1, §2
# [8] = system: MCF-7: human breast carcinoma; test: Tumor assay of ACM, MTT method, MCF-7; type: cell-based; conditions: 3 days
# Text: as §1, §2
# [9] = system: EL4: mice lymphoma; test: Tumor assay of ACM, cell count method, EL4; type: cell-based; conditions: 5 days
# Text: as §1, §2
# [10] = system: spontaneously hypertensive rats (SHR); conditions: 0.1 mg/kg PO, Ave. of 3 rats (Tables 7 and 9: two experiments)
# Description: Blood pressure and heart rate were recorded indirectly by tail cuff method in a temperature controlled environment (32±1° C.) before (0 time) and 1, 2 and 4 hours after oral administration of test substance or vehicle. A reduction in systolic pressure by 10 percent or more (>10%), or decrease in heart rate by 20 percent or more (≧20%), at each measured time interval relative to 0 time, is considered significant.
# Blood pressure was recorded indirectly vial tail cuff at 0 time (before) and 1, 2 and 4 hours after oral administration of vehicle or test substance. A reduction in blood pressure by 10 percent or more (10%), or decrease in heart rate by 20 percent or more (≧20%) at each measurement time point relative to 0 time, shown in parenthesis, is considered significant.
structure (smiles),measurement,setting,value
Nc1nc2nc[nH]c2c(=O)[nH]1 [Guanine],Serum ALT,"[1]; individual rats, 300 mg/kg",508 U/L and 532 U/L and 412 U/L and 436 U/L and 636 U/L
same,Serum AST,"[1]; individual rats, 300 mg/kg",656 U/L and 912 U/L and 776 U/L and 652 U/L and 1028 U/L
same,Serum ALT Dec. %,[1]; relative to vehicle,(34) %
same,Serum AST Dec. %,[1]; relative to vehicle,(33) %
"CC(C)=CCOc1ccc([C@H]2C(=O)N(O)C(=O)[C@@H]2CC(C)C)cc1 (relative stereo) [Compound 4, 3R*,4S*-1-Hydroxy-3-isobutyl-4-[4-(3-methyl-2-butenyloxy)phenyl]pyrrolidine-2,5-dione]",cytotoxic activity (in words),[2],no cytotoxic activity
same,50% Growth Inhibition (ED50),[3],>10 µg/mL
"CC(C)=CCOc1ccc(C2=C(CC(C)C)C(=O)OC2=O)cc1 [Compound 1, 3-Isobutyl-4-[4-(3-methyl-2-butenyloxy)phenyl]furan-2,5-dione]",ED50,[4],38 ppm
same,ED50,[5],52 ppm
same,ED50,[6],21 ppm
same,ED50,[7],15 ppm
same,ED50,[8],6 ppm
same,cytotoxic activity (in words),[3],no cytotoxic activity
same,50% Growth Inhibition (ED50),[3],>20 µg/mL
same,ED50,[9],3.5 ppm
Clc1cccc(Cl)c1N=C1NCCN1 [Clonidine],"Heart Rate % Control (from 0 times), 2 Hours",[10],90% and 86%
same,"Heart Rate % Control (from 0 times), 4 Hours",[10],98% and 102%
